Data from patent US20040053974A1, “Medicinal compositions containing diuretic and insulin resistance-improving agent” (priority 2000, published 2004).
Marks after values point to notes of the source that are not given here.

Experiments:
Assay type in all cases: in vivo, rat
Zucker fatty rats = assay: Co-administration of furosemide or amiloride with compound A for 14 days: blood parameters, heart-weight, circulating serum volume; conditions: for blood dilution (decreases in hematocrit value and the number of red blood cells) caused by compound A / increases in circulating serum volume caused by compound A / increases in heart-weight caused by compound A: orally 14 days, 1 ml/kg of furosemide 100 mg/ml or amiloride 10 mg/ml
Experimental: Zucker fatty rats (7 weeks old, SLC, Shizuoka, Japan) were grouped as 5 rats a group. Mean body weight, plasma glucose and glyceride levels, hematocrit value, and the number of red blood cells in each group were similar among the groups. The rats were allowed to take food pellets (F2, Funabashi Farm) and water ad libitum. In the control group, the rats were given only food pellets, while the rest of rats were administered 5-[4-(6-methoxy-1-methyl-1H-benzimidazol-2-ylmethoxy)benzyl]thiazolidine-2,4-dione hydrochloride (suspended in 0.5% solution of carboxymethylcellulose (CMC)) at a volume of 1 ml/kg orally by gavage. In the groups of rats administered the above compound with furosemide (100 mg/ml, suspended in 0.5% CMC solution) or amiloride (10 mg/ml, suspended in distilled water), these diuretics were orally administered by gavage for 14 successive days at a volume of 1 ml/kg. After the final administration, the rats were fasted overnight, and their blood was collected from the tail vein with a capillary treated with heparin and EDTA on the 15th day.
Plasma glucose level and blood cell parameters were determined using an automatic analyzer (plasma glucose: Glucoloader GX-T, A&T Corp., blood cell parameters: K-1000, Sysmex Corporation, Kobe, Japan). Triglyceride was detected by the absorbance method with a kit (Triglyceride-E Test Wako, Wako Pure Chemical Industries, Ltd.). Concentrations of insulin and leptin were detected with RIA kits (Rat Insulin RIA Kit, Linco Research Inc.). Furthermore, circulating serum volume was determined by the dilution method using Evans blue.

female Wistar rats [1] = assay: Co-administration of furosemide with compound A: circulating serum volume, heart-weight, edema and hydrothorax (macroscopic observation)
Experimental: 5-[4-(6-Methoxy-1-methyl-1H-benzimidazol-2-ylmethoxy)benzyl]thiazolidine-2,4-dione hydrochloride (200 mg/kg) was repeatedly and orally administered by gavage for 3 or 7 successive days to female Wistar rats (7 weeks old, Charles River Japan, Inc.) and furosemide (120 mg/kg and 240 mg/kg) was dietarily administered during the period.

female Wistar rats [2] = assay: Heart-weight and circulating serum volume (Evans blue method) after repeated oral administration; conditions: for Ratio against control Heart-Weight / Ratio against control Circulating Serum volume: 200 mg/kg orally by gavage, female Wistar rats
Experimental: After 5-[4-(6-methoxy-1-methyl-1H-benzimidazol-2-ylmethoxy)benzyl]thiazolidine-2,4-dione hydrochloride (200 mg/kg) was repeatedly and orally administered by gavage for 3 or 7 successive days to female Wistar rats (7 weeks old, Charles River Japan, Inc.), circulating serum volume was determined by Evans blue methods and heart-weight recorded.

[3] = co-administered with compound A, Zucker fatty rats
[4] = Furosemide 120 mg/kg dietary, co-administered with Compound A 200 mg/kg orally, female Wistar rats
[5] = Furosemide 240 mg/kg dietary, co-administered with Compound A 200 mg/kg orally, female Wistar rats
[6] = furosemide 120 and 240 mg/kg dietary co-administered with compound A 200 mg/kg
[7] = furosemide 120 and 240 mg/kg dietary co-administered with compound A 200 mg/kg, FIG. 1
[8] = orally by gavage, 14 successive days, Zucker fatty rats, FIG. 2
[9] = 7 successive days, n = 12, p < 0.01
[10] = 200 mg/kg orally, after administration for both 3 and 7 days
[11] = Compound A 200 mg/kg orally, Furosemide 0, female Wistar rats

SMILES: NS(=O)(=O)c1cc(C(=O)O)c(NCc2ccco2)cc1Cl [Furosemide, furosemide]
- blood dilution (decreases in hematocrit value and the number of red blood cells) caused by compound A (Zucker fatty rats; [3]): suppressed
- increases in circulating serum volume caused by compound A (Zucker fatty rats; [3]): suppressed
- increases in heart-weight caused by compound A (Zucker fatty rats; [3]): suppressed
- Macroscopic Observation, Edema: Subcutaneous tissue (incidence) (female Wistar rats [1]; [4]): 0/12
- Macroscopic Observation, Edema: brown adipose tissue (incidence) (female Wistar rats [1]; [4]): 12/12
- Macroscopic Observation, Edema: interstitial tissue of thymus (incidence) (female Wistar rats [1]; [4]): 0/12
- Macroscopic Observation, Hydrothorax (incidence) (female Wistar rats [1]; [4]): 2/12
- mean weight of thymus (female Wistar rats [1]; [4]): 450.6 mg
- Macroscopic Observation, Edema: Subcutaneous tissue (incidence) (female Wistar rats [1]; [5]): 0/12
- Macroscopic Observation, Edema: brown adipose tissue (incidence) (female Wistar rats [1]; [5]): 10/12
- Macroscopic Observation, Edema: interstitial tissue of thymus (incidence) (female Wistar rats [1]; [5]): 0/12
- Macroscopic Observation, Hydrothorax (incidence) (female Wistar rats [1]; [5]): 0/12
- mean weight of thymus (female Wistar rats [1]; [5]): 375.9 mg
- Decreases in the number of circulating red blood cells produced by compound A (female Wistar rats [1]; [6]): prevented
- edema and hydrothorax associated with administration of compound A (female Wistar rats [1]; [6]): suppressed
- increases in circulating serum volume elicited by compound A (female Wistar rats [1]; [7]): suppressed
- increases in heart-weight elicited by compound A (female Wistar rats [1]; [7]): suppressed

SMILES: N=C(N)NC(=O)c1nc(Cl)c(N)nc1N [amiloride]
- ameliorating effects compared with furosemide (Zucker fatty rats; amiloride at 1/10 the dose of furosemide, co-administered with compound A, Zucker fatty rats): at least as potent as those of furosemide
- blood dilution (decreases in hematocrit value and the number of red blood cells) caused by compound A (Zucker fatty rats; [3]): suppressed
- increases in circulating serum volume caused by compound A (Zucker fatty rats; [3]): suppressed
- increases in heart-weight caused by compound A (Zucker fatty rats; [3]): suppressed
- suppression of side effects caused by insulin sensitizers, relative to diuretic action (Zucker fatty rats; rats co-treated with amiloride and compound A): more potent than those predicted from its diuretic action

SMILES: COc1ccc2nc(COc3ccc(CC4SC(=O)NC4=O)cc3)n(C)c2c1.Cl (stereo not shown) [compound A, 5-[4-(6-methoxy-1-methyl-1H-benzimidazol-2-ylmethoxy)benzyl]thiazolidine-2,4-dione hydrochloride]
- blood glucose levels (Zucker fatty rats; orally by gavage, 14 successive days, Zucker fatty rats): decreasing
- HOMA-R, an indicator of insulin resistance (Zucker fatty rats; [8]): remarkably decreased
- heart-weight (Zucker fatty rats; [8]): increases
- hematocrit value (dilution of the blood) (Zucker fatty rats; [8]): decreases
- number of red blood cells (dilution of the blood) (Zucker fatty rats; [8]): decreases
- triglyceride levels (Zucker fatty rats; [8]): remarkably decreased
- Ratio against control Heart-Weight (female Wistar rats [2]; 3 successive days, n = 5-6): 1.03^a)
- Ratio against control Circulating Serum volume (female Wistar rats [2]; 3 successive days, n = 5-6, p < 0.05): 1.18^a)*
- Ratio against control Circulating Serum volume (female Wistar rats [2]; [9]): 1.30^b)**
- Ratio against control Heart-Weight (female Wistar rats [2]; [9]): 1.22^b)**
- Circulating serum volume (female Wistar rats [2]; [10]): increased
- heart-weight (female Wistar rats [2]; [10]): increased
- Macroscopic Observation, Edema: Subcutaneous tissue (incidence) (female Wistar rats [1]; [11]): 1/12
- Macroscopic Observation, Edema: brown adipose tissue (incidence) (female Wistar rats [1]; [11]): 12/12
- Macroscopic Observation, Edema: interstitial tissue of thymus (incidence) (female Wistar rats [1]; [11]): 1/12
- Macroscopic Observation, Hydrothorax (incidence) (female Wistar rats [1]; [11]): 6/12
- mean weight of thymus (female Wistar rats [1]; [11]): 521.4 mg
- number of circulating red blood cells (female Wistar rats [1]; compound A 200 mg/kg orally, female Wistar rats): Decreases
